Assays:
panel of 442 kinases [1] = molecular target: T1, panel of 442 kinases (Homo sapiens, UniProt Q99683); format: binding; details: Compound Concentration 10 µM
T1 construct: purchased KINOMEscan
T1 sequence (Q99683 1-1374): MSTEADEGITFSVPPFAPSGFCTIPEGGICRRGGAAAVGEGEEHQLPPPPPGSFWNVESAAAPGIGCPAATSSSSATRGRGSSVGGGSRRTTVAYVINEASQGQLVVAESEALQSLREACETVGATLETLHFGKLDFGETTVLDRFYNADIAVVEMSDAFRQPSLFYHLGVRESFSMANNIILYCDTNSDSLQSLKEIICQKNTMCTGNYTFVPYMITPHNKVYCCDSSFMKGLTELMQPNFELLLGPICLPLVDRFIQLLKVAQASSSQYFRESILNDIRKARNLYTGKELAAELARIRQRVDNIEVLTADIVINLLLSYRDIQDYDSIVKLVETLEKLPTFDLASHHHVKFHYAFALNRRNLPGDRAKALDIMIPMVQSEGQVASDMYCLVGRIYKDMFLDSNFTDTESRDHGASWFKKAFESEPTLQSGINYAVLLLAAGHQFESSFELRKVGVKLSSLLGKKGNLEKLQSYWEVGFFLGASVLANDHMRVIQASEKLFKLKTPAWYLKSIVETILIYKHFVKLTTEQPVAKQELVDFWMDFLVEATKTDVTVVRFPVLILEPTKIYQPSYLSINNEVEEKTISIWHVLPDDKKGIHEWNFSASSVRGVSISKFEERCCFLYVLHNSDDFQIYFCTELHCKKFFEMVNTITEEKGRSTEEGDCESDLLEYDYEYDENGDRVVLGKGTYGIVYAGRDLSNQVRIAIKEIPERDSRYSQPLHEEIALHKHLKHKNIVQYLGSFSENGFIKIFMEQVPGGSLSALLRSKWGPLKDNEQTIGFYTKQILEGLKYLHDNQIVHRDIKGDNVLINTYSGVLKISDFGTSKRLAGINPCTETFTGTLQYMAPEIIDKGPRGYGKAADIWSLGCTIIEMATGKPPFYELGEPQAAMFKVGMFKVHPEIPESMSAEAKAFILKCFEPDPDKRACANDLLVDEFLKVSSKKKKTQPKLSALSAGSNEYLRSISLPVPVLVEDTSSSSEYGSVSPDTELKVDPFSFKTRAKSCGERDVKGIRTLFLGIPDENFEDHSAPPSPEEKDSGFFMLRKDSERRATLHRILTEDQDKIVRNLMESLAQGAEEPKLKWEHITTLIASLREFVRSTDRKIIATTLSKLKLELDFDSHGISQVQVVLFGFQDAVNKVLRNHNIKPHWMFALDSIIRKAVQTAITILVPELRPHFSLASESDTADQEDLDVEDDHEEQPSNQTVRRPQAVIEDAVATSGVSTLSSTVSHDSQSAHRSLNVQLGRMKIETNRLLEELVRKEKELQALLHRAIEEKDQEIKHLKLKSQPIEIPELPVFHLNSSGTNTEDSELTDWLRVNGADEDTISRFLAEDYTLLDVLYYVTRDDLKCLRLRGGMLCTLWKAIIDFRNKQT
From the text: (§1) We assessed the selectivity of members of this scaffold using the KINOMEscan methodology across a near comprehensive panel of 442 kinases [[18,27]].

panel of 442 kinases [2] = molecular target: T2, panel of 442 kinases (Homo sapiens, UniProt P21860); format: binding; details: Compound Concentration 10 µM
T2 construct: purchased KINOMEscan
T2 sequence (P21860 20-1342): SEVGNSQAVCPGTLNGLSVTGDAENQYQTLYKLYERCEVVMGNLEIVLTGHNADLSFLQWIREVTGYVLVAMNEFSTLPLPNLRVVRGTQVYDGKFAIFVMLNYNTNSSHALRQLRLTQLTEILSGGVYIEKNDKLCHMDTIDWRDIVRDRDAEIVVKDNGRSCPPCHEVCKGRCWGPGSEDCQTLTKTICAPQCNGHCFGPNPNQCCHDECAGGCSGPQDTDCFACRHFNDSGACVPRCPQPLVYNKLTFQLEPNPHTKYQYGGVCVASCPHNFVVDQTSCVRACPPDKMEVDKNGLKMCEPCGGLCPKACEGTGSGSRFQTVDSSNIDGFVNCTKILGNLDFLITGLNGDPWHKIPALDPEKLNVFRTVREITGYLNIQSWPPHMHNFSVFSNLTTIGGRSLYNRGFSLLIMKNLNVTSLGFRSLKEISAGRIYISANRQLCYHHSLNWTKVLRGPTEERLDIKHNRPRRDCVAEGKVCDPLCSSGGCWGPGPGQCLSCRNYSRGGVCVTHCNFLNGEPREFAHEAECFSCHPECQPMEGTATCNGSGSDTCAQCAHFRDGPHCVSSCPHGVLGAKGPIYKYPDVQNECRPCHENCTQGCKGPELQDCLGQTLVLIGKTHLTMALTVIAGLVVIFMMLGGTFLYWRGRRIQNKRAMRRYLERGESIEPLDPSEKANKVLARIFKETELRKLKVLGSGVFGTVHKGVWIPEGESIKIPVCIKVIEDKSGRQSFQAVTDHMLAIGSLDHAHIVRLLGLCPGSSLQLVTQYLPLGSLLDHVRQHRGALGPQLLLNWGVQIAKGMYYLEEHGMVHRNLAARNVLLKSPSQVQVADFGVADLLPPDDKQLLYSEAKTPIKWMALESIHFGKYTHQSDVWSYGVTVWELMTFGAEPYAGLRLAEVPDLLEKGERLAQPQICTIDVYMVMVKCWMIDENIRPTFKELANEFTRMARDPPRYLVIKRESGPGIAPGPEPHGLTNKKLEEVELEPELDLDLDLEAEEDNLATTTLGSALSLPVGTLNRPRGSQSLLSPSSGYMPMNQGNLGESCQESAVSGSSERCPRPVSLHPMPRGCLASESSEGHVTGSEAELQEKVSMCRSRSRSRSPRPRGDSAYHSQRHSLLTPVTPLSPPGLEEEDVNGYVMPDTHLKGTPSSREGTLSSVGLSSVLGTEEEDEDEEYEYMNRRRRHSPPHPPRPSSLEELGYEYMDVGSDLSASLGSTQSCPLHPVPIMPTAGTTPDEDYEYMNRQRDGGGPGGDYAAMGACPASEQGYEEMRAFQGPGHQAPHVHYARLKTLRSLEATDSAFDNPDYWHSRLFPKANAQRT
From the text: as §1

Row | SMILES | KINOMEscan: ASK1 (panel of 442 kinases [1]) | KINOMEscan: ERBB3 (panel of 442 kinases [2])
1 | COc1cc(C(=O)N2CCC(N3CCN(C)CC3)CC2)ccc1Nc1ncc2c(n1)N(C1CCCC1)c1ccccc1C(=O)N2C [Compound 25, 11-cyclopentyl-2-((2-methoxy-4-(4-(4-methylpiperazin-1-yl)piperidine-1-carbonyl)phenyl)amino)-5-methyl-5H-benzo[e]pyrimido[5,4-b][1,4]diazepin-6(11H)-one] | 100 | 100
2 | COc1cc(C(=O)N2CCC(N3CCN(C)CC3)CC2)ccc1Nc1ncc2c(n1)N(C)c1ccccc1C(=O)N2C [15 (LRRK2-IN-1)] | 100 | 100
3 | CCOc1cc(C(=O)N2CCC(N3CCN(C)CC3)CC2)ccc1Nc1ncc2c(n1)N(C1CCCC1)c1ccccc1C(=O)N2C [Compound 26] | 100 | 100

— article PMC3914206
